Measurements from ChEMBL document CHEMBL1146976, “Radanamycin, a macrocyclic chimera of radicicol and geldanamycin” (Bioorg Med Chem Lett, 2006).
The source made the active and inactive calls. The calls are words filed in the database; no cut-off is given here.

Experiments:
MCF7 = experiment: Antiproliferative activity against human MCF7 cells; type: functional, cell-based
[1] = target: Heat shock protein HSP90 (Homo sapiens) (UniProt P07900+P08238); experiment: Inhibition of Hsp90 assessed by degradation of client proteins Her2 and Akt; type: protein assay

COc1c(O)cc2c(O)c1CC(C)OC(=O)c1c(O)cc(O)c(Cl)c1CCC(=O)N2 (configuration not stated) [RADANAMYCIN] was tested, and the IC50 (MCF7) was 1200 nM and the Activity [1] was “Active”.
